# From patent publication US20260263651A1, “WOUND DRESSING” (UNIVERSITY OF SUNDERLAND, priority 2023, published 2026)
# “Also recorded” adds a separate entry of the source.
# Assays:
# Format in all cases: cell-based
# [1] = test system: Staphylococcus aureus; assay: Microbiological evaluation of overnight bacteria suspensions, modified alginate wound dressing with absorbed substrate on agar; conditions: SA overnight culture, 24 h incubation at 37° C.
# Experimental: (§1) ACTIVHEAL® simply A (10×20 cm) non-adhesive foam samples were provided by Advanced Medical Solutions Ltd. The wound dressings were cut into ~5-10×5-10 mm squares, using an ethanol washed pair of scissors. A maximum of 0.20 g of the material was added into 10 mL DI water, and the pH was adjusted to ~3 by the addition of 0.1 M aq. HCl solution. The solution was stirred for 10 mins at room temperature, followed by the addition of 0.33 g EDC •HCl (1.7 mmol) and the pH was maintained at ~3 by the addition of 0.1 M aq. HCl solution. The solution was stirred at room temperature for 10 mins followed by the addition of 0.88 g compound 8 which was dissolved in DMSO or DMF. The mixture was stirred at room temperature for 48 h. The wound dressings were filtered and were washed with ethanol. To ensure the full removal of any non-coupled amide (8), the foam samples were resuspended in ethanol, stirred for 10 mins and filtered, and this process was repeated until the amide (8) was not detectable from the filtrate (this could be maintained by TLC or HPLC evaluation). The samples were dried in a vacuum oven for 3-4 h.
# (§2) The aqueous solution of 3a or 3b was prepared by the following: the desired amount of the enzymatic substrate (3.0 mg for 300 mg/L, 6.0 mg for 600 mg/L, 9.0 mg for 900 mg/L, 15.0 mg for 1500 mg/L, and 30.0 mg for 3000 mg/L) was weighed out on a 4 decimal place balance within ±0.3 mg error limit into a 10 mL volumetric flask and was adjusted to 10.0 mL with DI water. The solutions were absorbed into the foam samples and dried in a vacuum oven at 40° C. overnight.
# (§3) To model fluid exudate from a chronic wound, the wound dressing made according to ‘Modification of ActivHeal® Alginate’, above, was placed into an agar plate and the test pathogen was smeared over the surface of the agar.
# (§4) The enzymatic substrates were tested in 4 different concentrations (300, 600, 900 and 3000 mg/L) using DI water as a solvent, and the solutions were absorbed into the wound dressing samples, which were dried overnight under vacuum at 40° C.
# (§5) Two Gram negative strains (Escherichia coli—EC and Pseudomonas aeruginosa—PSA) and a Gram positive bacteria (Staphylococcus aureus—SA) were evaluated against the dimethyl (3a) and the diethyl (3b) substituted substrate. The overnight cultures were directly smeared from LB broth onto Columbia blood agar without measuring the OD. The wound dressings with the enzymatic substrate absorbed were placed onto the agar and were incubated overnight (see FIGS. 2-7).
# [2] = test system: Escherichia coli; assay: as above; conditions: for Observable colour change: EC overnight culture, 24 h incubation at 37° C.
# Experimental: as §1, §2, §3, §4, §5
# [3] = test system: Pseudomonas aeruginosa; assay: as above; conditions: PSA overnight culture, 24 h incubation at 37° C.
# Experimental: as §1, §2, §3, §4, §5
# [4] = test system: Pseudomonas aeruginosa; assay: Microbiological evaluation of standardised bacterial suspensions, modified wound dressing with absorbed substrate on agar; parameters: key to Observable colour change: − indicates no colour change; +− indicates relatively discernible blue colour change; + indicates a moderately strong blue colour change; ++ indicates a strong blue colour change
# Experimental: as §1, §2
# Bacterial strains were routinely cultured from working stocks in Tryptic Soy Broth (TSB) and incubated at 37° C. overnight with shaking at 150 RPM. Overnight cultures were centrifuged at 3000×g for 5 minutes, the supernatant discarded, and the pellet resuspended in 10 mL phosphate buffered saline (PBS). Bacterial inoculums were standardised by optical density at 600 nm on an Amersham Biosciences Ultrospec 10 spectrophotometer (Amersham Biosciences, Amersham, UK) to contain between 1 and 3×10^8 CFU/mL.
# However, rapid evaluation of lower bacteria concentrations is essential for the desired clinical application. […] The solutions were absorbed into the wound dressing samples, which were dried overnight under vacuum at 40° C.
# Two Gram negative strains (Escherichia coli—EC and Pseudomonas aeruginosa—PSA) and a Gram-positive bacterium (Staphylococcus aureus—SA) were evaluated. The bacteria were incubated overnight, centrifuged at 3000×g for 5 mins, the supernatant was discarded, and the residue pellets were resuspended in 10 mL PBS. The inoculums were standardised by measuring the optical density at 600 nm to assure a 1-3×10^8 CFU/mL. The standardised solutions were further diluted to prepare 1-3×10^6 and 1-3×10^4 CFU/mL suspension. 1×10^6 CFU would be an ideal breakpoint for a positive result, as this concentration coincides well with a level of colonisation that would likely go on to produce an infection.
# 100 μL bacterial suspensions were smeared over agar plates. Wound dressing samples were added to the top of the agar and were rolled over a few times (to ensure a full coverage and to ease the visibility of the colour change). The plates were incubated at 37° C., and the results were recorded after 24 h, after 48 h, after 72 h. The results are shown in Table 3-5; − indicates no colour change, +− indicates relatively discernible blue colour change, + indicates a moderately strong blue colour change and ++ indicates a strong blue colour change.
# [5] = substrate 300 mg/L, hydrochloride
smiles,measurement,setting,value
"CCN(CC)c1ccc(NC(=O)[C@@H](N)CC(C)C)cc1.Cl [3b, (2S)-2-amino-N-[4-(diethylamino)phenyl]-4-methyl-pentanamide hydrochloride]",Observable colour change,[1]; substrate 300 mg/L,None
same,Observable colour change,[1]; substrate 600 mg/L,None
same,Observable colour change,[1]; substrate 900 mg/L,None
same,Observable colour change,"[1]; substrate 3000 mg/L, hydrochloride",produced the colour change and Blue
same,Observable colour change,[2]; [5],blue colour changes; also recorded: Light blue
same,Observable colour change,[2]; substrate 600 mg/L,Light blue
same,Observable colour change,[2]; substrate 900 mg/L,Dark blue
same,Observable colour change,[2]; substrate 3000 mg/L,Dark blue
same,colour change strength compared with the dimethyl analogue,"[2]; overnight cultures (EC, PSA, SA), overall comparison of Table 2",stronger colour changes than the dimethyl analogue (3a)
same,Observable colour change,[3]; [5],blue colour changes; also recorded: Light blue
same,Observable colour change,[3]; substrate 600 mg/L,Light blue
same,Observable colour change,[3]; substrate 900 mg/L,Blue
same,Observable colour change,[3]; substrate 3000 mg/L,Dark blue
same,Observable colour change,"[4]; PSA 10^4, substrate 300 mg/L, 24 h at 37° C.",−
same,Observable colour change,"[4]; PSA 10^4, substrate 300 mg/L, 48 h at 37° C.",−
same,Observable colour change,"[4]; PSA 10^4, substrate 300 mg/L, 72 h at 37° C.",+
same,Observable colour change,"[4]; PSA 10^4, substrate 900 mg/L, 24 h at 37° C.",−
same,Observable colour change,"[4]; PSA 10^4, substrate 900 mg/L, 48 h at 37° C.",−
same,Observable colour change,"[4]; PSA 10^4, substrate 900 mg/L, 72 h at 37° C.",++
same,Observable colour change,"[4]; PSA 10^4, substrate 1500 mg/L, 24 h at 37° C.",−
same,Observable colour change,"[4]; PSA 10^4, substrate 1500 mg/L, 48 h at 37° C.",−
same,Observable colour change,"[4]; PSA 10^4, substrate 1500 mg/L, 72 h at 37° C.",++
same,Observable colour change,"[4]; PSA 10^6, substrate 300 mg/L, 24 h at 37° C.",−
same,Observable colour change,"[4]; PSA 10^6, substrate 300 mg/L, 48 h at 37° C.",−
same,Observable colour change,"[4]; PSA 10^6, substrate 300 mg/L, 72 h at 37° C.",+
same,Observable colour change,"[4]; PSA 10^6, substrate 900 mg/L, 24 h at 37° C.",−
same,Observable colour change,"[4]; PSA 10^6, substrate 900 mg/L, 48 h at 37° C.",+−
same,Observable colour change,"[4]; PSA 10^6, substrate 900 mg/L, 72 h at 37° C.",++
same,Observable colour change,"[4]; PSA 10^6, substrate 1500 mg/L, 24 h at 37° C.",−
same,Observable colour change,"[4]; PSA 10^6, substrate 1500 mg/L, 48 h at 37° C.",−
same,Observable colour change,"[4]; PSA 10^6, substrate 1500 mg/L, 72 h at 37° C.",+
same,colour change,"[4]; PSA 10^8, 10^6 or 10^4 CFU, after 72 h, every tested substrate concentration",moderate or strong blue colour changes
same,Observable colour change,"[4]; PSA 10^8, substrate 300 mg/L, 24 h at 37° C.",−
same,Observable colour change,"[4]; PSA 10^8, substrate 300 mg/L, 48 h at 37° C.",+
same,Observable colour change,"[4]; PSA 10^8, substrate 300 mg/L, 72 h at 37° C.",+
same,Observable colour change,"[4]; PSA 10^8, substrate 900 mg/L, 24 h at 37° C.",−
same,Observable colour change,"[4]; PSA 10^8, substrate 900 mg/L, 48 h at 37° C.",++
same,Observable colour change,"[4]; PSA 10^8, substrate 900 mg/L, 72 h at 37° C.",++
same,Observable colour change,"[4]; PSA 10^8, substrate 1500 mg/L, 24 h at 37° C.",−
same,Observable colour change,"[4]; PSA 10^8, substrate 1500 mg/L, 48 h at 37° C.",++
same,Observable colour change,"[4]; PSA 10^8, substrate 1500 mg/L, 72 h at 37° C.",++
same,colour change,"[4]; PSA 10^8 CFU, 10^6 CFU, and 104 CFU, substrate 900 mg/L, printed in the 48 h paragraph",strong blue colour changes
same,colour change,"[4]; PSA 10^8 CFU, after 48 h incubation, substrate 900 or 1500 mg/L",strong blue colour changes
